The source of these data is patent US6569839B1, “Fast-acting pharmaceutical compositions and methods of use” (priority 1998, dated 2003).

For data set [1] the following is noted: 1 gm interoperatively; total hip or knee joint replacements; 95% without steroid; cited from earlier work.
The conditions of data set [2]: 0.5%, continuous perineural infusion around the major nerve; cited from earlier work.
For data set [3] the following is noted: in vivo.
The conditions of data set [4]: 1000 units of Heparin with 1 gm of Cefazolin; cited from earlier work.
The conditions of data set [5]: 50 to 100 mg I.V. over a 40 to 120 second period; cited from earlier work.
The conditions of data set [6]: I.V. every 90 minutes; cited from earlier work.
For data set [7], the system named is gram negative organisms and many gram positive organisms which include staphylococcus aureus and staphylococcus epidermidis. To be noted: cited from earlier work.
Data set [8] has as its system common bone and joint infections. To be noted: cited from earlier work.
A short description of data set [9]: Absorption of antibiotic from the treated wound. The class given is in vivo. To be noted: administered to the wound over 24 hour period. The procedure:
In an embodiment of the present invention, a medicinal solution comprising Chloramphenicol can be prepared such that the patient receives only about 1-½ gm in a 24 hour period. Thus, if 100% was absorbed during the 24 hour period while treating a wound as, for example, following a total knee arthroplasty, the administered 1 ½ gm over a 24 hour is a safe dose, in fact, for three days. Since, however, only approximately 40% of the antibiotic is typically absorbed, the amount that is available to the bone marrow is, thus, very small. For patients with blood dyscrasias a dose of about 2 gm of Cephalosporin or a dose of about 1 gm Septaz can be used in place of a dose of about 1 g of Chloramphenicol for the 24 hour period.

On to `C[C@H]1C[C@@H]2[C@H]([C@@H](O)C[C@@]3(C)[C@H]2CC[C@]3(O)C(=O)COC(=O)CCC(=O)O)[C@@]2(C)C=CC(=O)C=C12` [Solumedrol], for which the “patients who experienced pain with interoperative steroid administration” value in [1] is on record as 33%.

With `CCCCN1CCCCC1C(=O)Nc1c(C)cccc1C` (centres unmarked) [Bupicocaine], the relief of pain entry in data set [2] is reported as “good relief of pain”.

For `C[C@]12CCC(=O)C=C1CC[C@@H]1[C@@H]2[C@@H](O)C[C@@]2(C)[C@H]1CC[C@]2(O)C(=O)COC(=O)CCC(=O)O` [Solu-Cortef, Hydrocortisone sodium succinate], the “patients who experienced pain with interoperative steroid administration” value in data set [1] is recorded as 33%.

As to `CCCCN1CCCCC1C(=O)Nc1c(C)cccc1C` (centres unmarked) [Marcaine], the “complications if dosage is not strictly monitored” value in data set [3] is given as “critical complications can occur”.

`Cc1nnc(SCC2=C(C(=O)O)N3C(=O)[C@@H](NC(=O)Cn4cnnn4)[C@H]3SC2)s1` [Cefazolin]: in data set [4], the time compatible is 24 h.

Take `CCN(CC)CC(=O)Nc1c(C)cccc1C` [Lidocaine]: the ill effects entry in data set [5] is on record as “without ill effects”. In addition, the maximum suggested dose result in data set [6] is “about 300 mg”.

With `CC(C)(O/N=C(\C(=O)N[C@@H]1C(=O)N2C(C(=O)[O-])=C(C[n+]3ccccc3)CS[C@H]12)c1csc(N)n1)C(=O)O` [Ceftazidime], in data set [7], the Bacterial coverage result is listed as “very good”.

For the molecule `O=C(N[C@H](CO)[C@H](O)c1ccc([N+](=O)[O-])cc1)C(Cl)Cl` [Chloramphenicol], the “effectiveness as broad-spectrum antibiotic” value in data set [8] (against the common bone and joint infections) is “very effective”. The reported blood toxicity result in data set [8] (in vivo) is “aplastic anemia and other blood problems”. Further, in [9], the “fraction of the antibiotic typically absorbed” value is recorded as “approximately 40%”.
